This is an account of results in paper doi:10.1101/2022.12.30.522309v1 (biorxiv, 2022).

Structures are written as SMILES.

The target of the experiment is T1, human FFA2R (Homo sapiens, UniProt O15552).
T1 sequence (O15552 1-330): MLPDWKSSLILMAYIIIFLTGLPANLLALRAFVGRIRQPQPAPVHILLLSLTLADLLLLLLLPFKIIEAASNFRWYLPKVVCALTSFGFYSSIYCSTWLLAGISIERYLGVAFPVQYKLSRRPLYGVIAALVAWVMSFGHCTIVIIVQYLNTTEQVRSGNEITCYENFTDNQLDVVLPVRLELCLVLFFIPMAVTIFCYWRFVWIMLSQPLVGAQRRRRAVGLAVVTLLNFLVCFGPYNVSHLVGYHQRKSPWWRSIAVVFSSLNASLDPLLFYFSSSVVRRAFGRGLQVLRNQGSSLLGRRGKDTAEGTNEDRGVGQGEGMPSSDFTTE
Description: inhibition of forskolin-induced cAMP, LANCE Ultra TR-FRET, HEK293. It is filed as cell-based. On the technique in general: In TR-FRET formats the signal depends on donor and acceptor labels being close together.

Turning to `CC(=O)CC(=O)O` [acetoacetate], the 50% effective concentration (EC50) (in general, the concentration needed to bring the measured effect to its halfway point) came to 1.24 mM.
